Source: patent publication US20240140991A1, “ANTIBIOTIC NATURAL PRODUCT ANALOGUES” (THE QUEEN'S UNIVERSITY OF BELFAST, priority 2021, published 2024)
Converted amounts (≈) assume the structure as drawn. Positions of bridges follow the written chain, without caps; N, C: chain ends. Non-standard residues stand in square brackets, D forms with d. Residues, ends and D or L forms follow the SMILES beside them. ξ: configuration not given here. *: point of attachment. Hexanoyl(4ξ-Me) = CCC(C)CCC(=O)*; Myristoyl = CCCCCCCCCCCCCC(=O)*; X2 = CC(=O)[C@H](CC(N)=O)C(=O)*; Decanoyl = CCCCCCCCCC(=O)*; dOrn = NCCC[C@@H](N)C(=O)O; Octanoyl = CCCCCCCC(=O)*; Orn = NCCC[C@H](N)C(=O)O; Hexanoyl = CCCCCC(=O)*; OAll = C=CCO*

Legend:
[1] = system: K. pneumoniae ATCC 11228; format: cell-based, Klebsiella pneumoniae; conditions: ATCC 11228
Description: (§1) Minimum inhibitory concentration (MIC) was determined by broth microdilution according to CLSI guidelines. Blood agar plates were inoculated with glycerol stocks of Escherichia coli ATCC 25922, E. coli ATCC 25922 MCR-1, E. coli MCR-1 (clinical isolate from Utrecht Medical Center, NL), E. coli EQAS MCR-2 (clinical isolate from Wageningen University and Research, NL), Kiebsielia pneumoniae ATCC 11228, K. pneumoniae ATCC 13883, K. pneumonia 2048 (clinical isolate from Vrije Universiteit Amsterdam Medical Center, NL), K. pneumonia JS-123 (clinical isolate from Utrecht Medical Center, NL), Acinetobacter baumannii ATCC 17961, A. baumannil ATCC 17978, A. baumannii 2018-006 (clinical isolate from Rijksinstituut voor Volksgezondheid en Milieu, NL), A. baumannii MDR (clinical isolate from Vrije Universiteit Amsterdam Medical Center, NL), Pseudomonas aeruginosa ATCC 27853, P. aeruginosa PAO1, P. aeruginosa NRZ-03961 (Reference strain from Das Nationale Referenzzentrum für gramnegative Krankenhauserreger, DE), P. aeruginosa M-120 (clinical isolate from Leiden University Medical Center, NL) and Staphylococcus aureus USA300 (clinical isolate from Texas Children's Hospitalm, USA). E. coli 25922 MCR1 was grown on LB agar supplemented with kanamycin. The inoculated agar plates were then incubated for 16 hours at 37° C. Individually grown colonies were subsequently used to inoculate 3 mL aliquots of TSB that were then incubated at 37° C. with shaking at 220 rpm. In parallel, the compounds to be assessed were serially diluted with Mueller-Hinton broth (MHB) in polypropylene 96-well plates (50 μL in each well). Once the OD600 of the bacterial suspensions reached 0.5, the bacteria were diluted with MHB (final concentration 2×10^5 CFU mL^−1) and added to the microplates containing the test compounds (50 μL to each well, final volume: 100 μL). The well-plates were sealed with an adhesive membrane and after 16 hours of incubation at 37° C. with shaking at 220 rpm the wells were visually inspected for bacterial growth. MIC values were defined as the lowest concentration of the compound that prevented visible growth of bacteria.

[2] = system: P. aeruginosa PAO1; format: cell-based, Pseudomonas aeruginosa; conditions: PAO1
Description: as §1

[3] = system: Escherichia coli ATCC 25922; format: cell-based; conditions: ATCC 25922
In short: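 Broth microdilution in MHB per CLSI; inoculum 2×10^5 CFU mL^−1 from log-phase TSB cultures at OD600 0.5. Plates incubated 16 hours at 37° C with shaking at 220 rpm. MIC is the lowest concentration preventing visible growth.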

[4] = system: A. baumannii ATCC 17978; format: cell-based, Acinetobacter baumannii; conditions: ATCC 17978
Description: as §1

[5] = system: E. coli; format: cell-based
Description: as §1
MIC values were determined for the lipid analogues of brevicidine.
MIC values were determined for the position 9 analogues of linear brevicidine.

| Minimum inhibitory concentration (MIC) [1] [µg/mL] | Minimum inhibitory concentration (MIC) [2] [µg/mL] | Minimum inhibitory concentration (MIC) [3] [µg/mL] | Minimum inhibitory concentration (MIC) [4] [µg/mL] | E. coli MIC [5] [µg/mL] | Structure (SMILES) |
| --- | --- | --- | --- | --- | --- |
| 2 (≈ 1.28 µM) | 1 to 2 | 1 to 2 | 1 (≈ 0.64 µM) | – | CCCCCC(=O)N[C@H](CO)C(=O)N[C@H](Cc1ccc(O)cc1)C(=O)N[C@H](Cc1c[nH]c2ccccc12)C(=O)N[C@H](CCCN)C(=O)N[C@@H](CCCN)C(=O)NCC(=O)N[C@H](CCCN)C(=O)N[C@@H](Cc1c[nH]c2ccccc12)C(=O)N[C@@H]1C(=O)N[C@@H]([C@@H](C)CC)C(=O)N[C@@H](CC(N)=O)C(=O)NCC(=O)NCC(=O)O[C@@H]1C [Compound C6] (Hexanoyl-[dS][dY][dW][dOrn][Orn]G[dOrn]WTINGG; ester 9-C) |
| 1 (≈ 0.618 µM) | 1 to 2 | 1 to 2 | 1 (≈ 0.618 µM) | – | CCCCCCCCCC(=O)N[C@H](CO)C(=O)N[C@H](Cc1ccc(O)cc1)C(=O)N[C@H](Cc1c[nH]c2ccccc12)C(=O)N[C@H](CCCN)C(=O)N[C@@H](CCCN)C(=O)NCC(=O)N[C@H](CCCN)C(=O)N[C@@H](Cc1c[nH]c2ccccc12)C(=O)N[C@@H]1C(=O)N[C@@H]([C@@H](C)CC)C(=O)N[C@@H](CC(N)=O)C(=O)NCC(=O)NCC(=O)O[C@@H]1C [Compound C10] (Decanoyl-[dS][dY][dW][dOrn][Orn]G[dOrn]WTINGG; ester 9-C) |
| 8 (≈ 4.78 µM) | 8 (≈ 4.78 µM) | 8 (≈ 4.78 µM) | 4 (≈ 2.39 µM) | – | CCCCCCCCCCCCCC(=O)N[C@H](CO)C(=O)N[C@H](Cc1ccc(O)cc1)C(=O)N[C@H](Cc1c[nH]c2ccccc12)C(=O)N[C@H](CCCN)C(=O)N[C@@H](CCCN)C(=O)NCC(=O)N[C@H](CCCN)C(=O)N[C@@H](Cc1c[nH]c2ccccc12)C(=O)N[C@@H]1C(=O)N[C@@H]([C@@H](C)CC)C(=O)N[C@@H](CC(N)=O)C(=O)NCC(=O)NCC(=O)O[C@@H]1C [Compound C14] (Myristoyl-[dS][dY][dW][dOrn][Orn]G[dOrn]WTINGG; ester 9-C) |
| – | – | – | – | 50 | CC[C@H](C)[C@@H]1NC(=O)[C@@H](NC(=O)[C@H](Cc2c[nH]c3ccccc23)NC(=O)[C@@H](CCCN)NC(=O)CNC(=O)[C@H](CCCN)NC(=O)[C@@H](CCCN)NC(=O)[C@@H](Cc2c[nH]c3ccccc23)NC(=O)[C@@H](Cc2ccc(O)cc2)NC(=O)[C@@H](CC(N)=O)C(C)=O)[C@@H](C)OC(=O)[C@H](CO)NC(=O)CNC1=O [Brev-C2] (X2-[dY][dW][dOrn][Orn]G[dOrn]WTIGS; ester 8-C) |
| – | – | – | – | <0.20 | CCC(C)CCC(=O)N[C@H](CC(N)=O)C(=O)N[C@H](Cc1ccc(O)cc1)C(=O)N[C@H](Cc1c[nH]c2ccccc12)C(=O)N[C@H](CCCN)C(=O)N[C@@H](CCCN)C(=O)NCC(=O)N[C@H](CCCN)C(=O)N[C@@H](Cc1c[nH]c2ccccc12)C(=O)N[C@@H](Cc1ccccc1)C(=O)N[C@H](C(=O)NCC(N)=O)[C@@H](C)CC (some centres unmarked) [Und(9-Phe)-NH2] ({Hexanoyl(4ξ-Me)}-[dN][dY][dW][dOrn][Orn]G[dOrn]WFIG-NH2) |
| – | – | – | – | 0.78 | CCC(C)CCC(=O)N[C@H](CC(N)=O)C(=O)N[C@H](Cc1ccc(O)cc1)C(=O)N[C@H](Cc1c[nH]c2ccccc12)C(=O)N[C@H](CCCN)C(=O)N[C@@H](CCCN)C(=O)NCC(=O)N[C@H](CCCN)C(=O)N[C@@H](Cc1c[nH]c2ccccc12)C(=O)N[C@@H](Cc1c[nH]c2ccccc12)C(=O)N[C@H](C(=O)NCC(N)=O)[C@@H](C)CC (some centres unmarked) [Und(9-Trp)-NH2] ({Hexanoyl(4ξ-Me)}-[dN][dY][dW][dOrn][Orn]G[dOrn]WWIG-NH2) |
| 0.5 to 1 | 1 (≈ 0.629 µM) | 0.5 to 1 | 0.5 to 1 | – | CCCCCCCC(=O)N[C@H](CO)C(=O)N[C@H](Cc1ccc(O)cc1)C(=O)N[C@H](Cc1c[nH]c2ccccc12)C(=O)N[C@H](CCCN)C(=O)N[C@@H](CCCN)C(=O)NCC(=O)N[C@H](CCCN)C(=O)N[C@@H](Cc1c[nH]c2ccccc12)C(=O)N[C@@H]1C(=O)N[C@@H]([C@@H](C)CC)C(=O)N[C@@H](CC(N)=O)C(=O)NCC(=O)NCC(=O)O[C@@H]1C [Compound C8] (Octanoyl-[dS][dY][dW][dOrn][Orn]G[dOrn]WTINGG; ester 9-C) |
| >64 | 64 (≈ 43.7 µM) | 32 (≈ 21.8 µM) | >64 | – | CC[C@H](C)[C@@H]1NC(=O)[C@@H](NC(=O)[C@H](Cc2c[nH]c3ccccc23)NC(=O)[C@@H](CCCN)NC(=O)CNC(=O)[C@H](CCCN)NC(=O)[C@@H](CCCN)NC(=O)[C@@H](Cc2c[nH]c3ccccc23)NC(=O)[C@@H](Cc2ccc(O)cc2)NC(=O)[C@H](N)CO)[C@@H](C)OC(=O)CNC(=O)CNC(=O)[C@H](CC(N)=O)NC1=O [NH2] (H-[dS][dY][dW][dOrn][Orn]G[dOrn]WTINGG; ester 9-C) |
| – | – | – | – | 25 | CCCCCC(=O)N[C@H](CC(N)=O)C(=O)N[C@H](Cc1ccc(O)cc1)C(=O)N[C@H](Cc1c[nH]c2ccccc12)C(=O)N[C@H](CCCN)C(=O)N[C@@H](CCCN)C(=O)NCC(=O)N[C@H](CCCN)C(=O)N[C@@H](Cc1c[nH]c2ccccc12)C(=O)N[C@@H]1C(=O)N[C@@H]([C@@H](C)CC)C(=O)NCC(=O)N[C@@H](CO)C(=O)O[C@@H]1C [Brev-C6] (Hexanoyl-[dN][dY][dW][dOrn][Orn]G[dOrn]WTIGS; ester 9-C) |
| – | – | – | – | 1.56 | CCCCCCCCCC(=O)N[C@H](CC(N)=O)C(=O)N[C@H](Cc1ccc(O)cc1)C(=O)N[C@H](Cc1c[nH]c2ccccc12)C(=O)N[C@H](CCCN)C(=O)N[C@@H](CCCN)C(=O)NCC(=O)N[C@H](CCCN)C(=O)N[C@@H](Cc1c[nH]c2ccccc12)C(=O)N[C@@H]1C(=O)N[C@@H]([C@@H](C)CC)C(=O)NCC(=O)N[C@@H](CO)C(=O)O[C@@H]1C [Brev-C10] (Decanoyl-[dN][dY][dW][dOrn][Orn]G[dOrn]WTIGS; ester 9-C) |
| – | – | – | – | 50 | CC[C@H](C)[C@@H]1NC(=O)[C@@H](NC(=O)[C@H](Cc2c[nH]c3ccccc23)NC(=O)[C@@H](CCCN)NC(=O)CNC(=O)[C@H](CCCN)NC(=O)[C@@H](CCCN)NC(=O)[C@@H](Cc2c[nH]c3ccccc23)NC(=O)[C@@H](Cc2ccc(O)cc2)NC(=O)[C@H](N)CC(N)=O)[C@@H](C)OC(=O)[C@H](CO)NC(=O)CNC1=O [Brev-NH2] (H-[dN][dY][dW][dOrn][Orn]G[dOrn]WTIGS; ester 9-C) |
| – | – | – | – | 0.78 | CCC(C)CCC(=O)N[C@H](CC(N)=O)C(=O)N[C@H](Cc1ccc(O)cc1)C(=O)N[C@H](Cc1c[nH]c2ccccc12)C(=O)N[C@H](CCCN)C(=O)N[C@@H](CCCN)C(=O)NCC(=O)N[C@H](CCCN)C(=O)N[C@@H](Cc1c[nH]c2ccccc12)C(=O)N[C@@H](CC(C)C)C(=O)N[C@H](C(=O)NCC(N)=O)[C@@H](C)CC (some centres unmarked) [Und(9-Leu)-NH2] ({Hexanoyl(4ξ-Me)}-[dN][dY][dW][dOrn][Orn]G[dOrn]WLIG-NH2) |
| – | – | – | – | 12.5 | CCC(C)CCC(=O)N[C@H](CC(N)=O)C(=O)N[C@H](Cc1ccc(O)cc1)C(=O)N[C@H](Cc1c[nH]c2ccccc12)C(=O)N[C@H](CCCN)C(=O)N[C@@H](CCCN)C(=O)NCC(=O)N[C@H](CCCN)C(=O)N[C@@H](Cc1c[nH]c2ccccc12)C(=O)N[C@@H](CC(=O)O)C(=O)N[C@H](C(=O)NCC(N)=O)[C@@H](C)CC (some centres unmarked) [Und(9-Asp)-NH2] ({Hexanoyl(4ξ-Me)}-[dN][dY][dW][dOrn][Orn]G[dOrn]WDIG-NH2) |
| – | – | – | – | 0.4 | C=CCOC(=O)CC[C@H](NC(=O)[C@H](Cc1c[nH]c2ccccc12)NC(=O)[C@@H](CCCN)NC(=O)CNC(=O)[C@H](CCCN)NC(=O)[C@@H](CCCN)NC(=O)[C@@H](Cc1c[nH]c2ccccc12)NC(=O)[C@@H](Cc1ccc(O)cc1)NC(=O)[C@@H](CC(N)=O)NC(=O)CCC(C)CC)C(=O)N[C@H](C(=O)NCC(N)=O)[C@@H](C)CC (some centres unmarked) [Und(9-AllGlu)-NH2] ({Hexanoyl(4ξ-Me)}-[dN][dY][dW][dOrn][Orn]G[dOrn]WE(OAll)IG-NH2) |
